In PMC6539005, “Half-Wave Potentials and In Vitro Cytotoxic Evaluation of 3-Acylated 2,5-Bis(phenylamino)-1,4-benzoquinones on Cancer Cells” (Molecules, 2019):
Like-named read-outs stand apart in the source and are kept apart here.

Key:
T24 (bladder) cells = experiment: MTT cytotoxicity assay, T24; type: cell-based, human; details: 48 h incubation (b12: 72 h), n = 3, read-out: IC50 ± SEM T24
Procedure: (§1) The 3-acyl-2,5-bis(phenylamino)-1,4-benzoquinones 2a–q were evaluated for their in vitro cytotoxic activities against normal human embryonic kidney cells (HEK-293 cells) and two human cancer cell lines (T24 and DU-145 cells) in 72 h drug exposure assays. The cytotoxic activities of the new compounds were measured using conventional microculture tetrazolium reduction assays. The cytotoxic activities are expressed in terms of IC50. Doxorubicin, a clinically used anti-cancer agent, was taken as a positive control.
(§2) Human cancer cell lines T24 (bladder) and DU-145 (prostate), and non-tumor HEK-293 cells were obtained from the American Type Culture Collection (ATCC, Manassas, VA, USA). The cultures were maintained at a density of 1× 10^5 cells/mL and the medium was changed at 48- to 72-h intervals. They were cultured in high-glucose Dulbecco’s modified Eagle medium (Gibco, Grand Island, NY, USA) supplemented with 10% fetal calf serum, penicillin (100 U/mL), and streptomycin (100 μg/mL). All cultures were kept at 37 °C in 95% air/5% CO2 at 100% humidity. Phosphate-buffered saline (PBS) was purchased from Gibco. Cells were incubated at the indicated times at 37 °C, with or without quinones at various concentrations.
(§3) The cytotoxicity of the quinones was assessed by following the reduction of MTT (3-(4,5-Dimethylthiazol-2-yl)-2,5-diphenyltetrazolium bromide) to formazan blue. Cells were seeded into 96-well plates at a density of 10,000 cells/well for 24 h and then incubated for 48 h, with or without the quinone derivatives. Doxorubicin was used as the standard chemotherapeutic agent (positive control). Cells were then washed twice with warm PBS and incubated with MTT (0.5 mg/mL) for 2 hours at 37 °C. Blue formazan crystals were solubilized by adding 100 µL DMSO/well, and the optical density of the coloured solutions was subsequently read at 550 nm. Results are expressed as percentage of MTT reduction, compared to untreated control conditions. The IC50 values were calculated using the GraphPad Prism software (San Diego, CA, USA).

[1] = Half-wave potentials by cyclic voltammetry in acetonitrile; type: physicochemical; details: rt, Pt electrode, vs non-aqueous Ag/Ag+, given as negative of potential; for −E^I 1/2: first one-electron reduction, 0.1 M tetraethylammonium tetrafluoroborate; for −E^II 1/2: second one-electron reduction
Procedure: The members of the 3-acyl-2,5-bis(phenylamino)-1,4-benzoquinone series 2a–q were evaluated for their half-wave potentials (E^I 1/2 and E^II 1/2). They were measured by cyclic voltammetry in acetonitrile at room temperature, using a platinum electrode and 0.1 M tetraethylamoniumtetrafluoroborate as the supporting electrolyte. The voltammograms were run in the potential range from 0.0 to −2.0 V versus non-aqueous Ag/Ag^+.

T24 and DU-145 cells = experiment: MTT cytotoxicity assay, both cancer cell lines; type: cell-based; details: Homo sapiens; mean of T24 and DU-145 IC50
Procedure: as §1, §2, §3

DU-145 (prostate) cells = experiment: MTT cytotoxicity assay, DU-145; type: cell-based; details: Homo sapiens, 48 h incubation (b12: 72 h), n = 3, read-out: IC50 ± SEM DU-145
Procedure: as §1, §2, §3

HEK-293 kidney cells = experiment: MTT cytotoxicity assay, HEK-293; type: cell-based; details: Homo sapiens, HEK293, non-tumor cells, 48 h incubation (b12: 72 h), n = 3, read-out: IC50 ± SEM HEK-293
Procedure: as §1, §2, §3

[2] = test system: human colon adenocarcinoma; set-up: method as in PMID 3746824; details: cited from earlier work

Compound	IC50 (T24 (bladder) cells; Homo sapiens)	−E^I 1/2 [1]	−E^II 1/2 [1]	IC50 (T24 and DU-145 cells)	IC50 (DU-145 (prostate) cells)	IC50 (HEK-293 kidney cells)	in vitro inhibitory activity against human colon adenocarcinoma proliferation [2]	IC50 (T24 (bladder) cells)
CC(=O)C1=C(Nc2ccccc2)C(=O)C=C(Nc2ccccc2)C1=O [2a, 3-Acetyl-2,5-bis(phenylamino)-1,4-benzoquinone]	> 100 µM	565 mV	1170 mV	> 98 µM	96 ± 7.9 µM	> 100 µM		
O=C1C=C(Nc2ccccc2)C(=O)C(C(=O)c2ccco2)=C1Nc1ccccc1 [2g, 3-(Furan-2-carbonyl)-2,5-bis(phenylamino)-1,4-benzoquinone]	40.2 ± 4 µM	570 mV	870 mV	40 µM	39.9 ± 3.6 µM	61.7 ± 4.2 µM		
O=C1C=C(Nc2ccc(F)cc2)C(=O)C(C(=O)c2ccco2)=C1Nc1ccc(F)cc1 [2p, 3-(Furan-2-carbonyl)-2,5-bis-[(4-fluorophenyl)amino]-1,4-benzoquinone]	> 100 µM	680 mV	950 mV	> 95 µM	90 ± 6.4 µM	72.8 ± 7 µM		
COc1ccc(C(=O)C2=C(Nc3ccccc3)C(=O)C=C(Nc3ccccc3)C2=O)cc1OC [2e, 3-(3,4-Dimethoxybenzoyl)-2,5-bis(phenylamino)-1,4-benzoquinone]	58.2 ± 7.1 µM	560 mV	1140 mV	52.9 µM	47.7 ± 4.2 µM	> 100 µM		
O=C1C=C(Nc2ccc(F)cc2)C(=O)C(C(=O)c2ccccc2)=C1Nc1ccc(F)cc1 [2n, 3-Benzoyl-2,5-bis-[(4-fluorophenyl)amino]-1,4-benzoquinone]	74.5 ± 2.2 µM	560 mV	1040 mV	> 87.2 µM	> 100 µM	> 100 µM		
O=C1C=C(Nc2ccccc2)C(=O)C=C1Nc1ccccc1 [A, 2,5-bis(phenylamino)benzoquinone]							good in vitro inhibitory activity	
O=C1C=C(Nc2ccccc2)C(=O)C(C(=O)c2cccs2)=C1Nc1ccccc1 [2h, 3-(Thiophen-2-carbonyl)-2,5-bis(phenylamino)-1,4-benzoquinone]	75.6 ± 9.1 µM	500 mV	1030 mV	78.2 µM	80.9 ± 9.7 µM	> 100 µM		
O=C1C=C(Nc2ccc(F)cc2)C(=O)C(C(=O)c2cccs2)=C1Nc1ccc(F)cc1 [2q, 3-(Thiophen-2-carbonyl)-2,5-bis-[(4-fluorophenyl)amino]-1,4-benzoquinone]	> 100 µM	730 mV	980 mV	> 100 µM	> 100 µM	> 100 µM		
COc1cc(NC2=CC(=O)C(Nc3cc(OC)c(OC)c(OC)c3)=C(C(=O)c3cccs3)C2=O)cc(OC)c1OC [2m, 3-(Thiophen-2-carbonyl)-2,5-bis-[(3,4,5-trimethoxyphenyl)amino]-1,4-benzoquinone]	63.2 ± 0.6 µM	850 mV	1010 mV	55.9 µM	48.6 ± 3 µM	30.7 ± 3.1 µM		
COc1ccc(C(=O)C2=C(Nc3cc(OC)c(OC)c(OC)c3)C(=O)C=C(Nc3cc(OC)c(OC)c(OC)c3)C2=O)cc1 [2j, 3-(4-Methoxybenzoyl)-2,5-bis-[(3,4,5-trimethoxyphenyl)amino]-1,4-benzoquinone]	85.3 ± 1.9 µM	740 mV	950 mV	78.8 µM	72.4 ± 2.6 µM	56.9 ± 5.2 µM		
COc1cccc2c1C(=O)c1c(O)c3c(c(O)c1C2=O)C[C@@](O)(C(=O)CO)C[C@@H]3O[C@H]1C[C@H](N)[C@H](O)[C@H](C)O1 [DOX, Doxorubicin, reference compound]	0.43 µM			0.69 µM	0.93 ± 0.06 µM			0.46 ± 0.08 µM
COc1cc(C(=O)C2=C(Nc3ccccc3)C(=O)C=C(Nc3ccccc3)C2=O)cc(OC)c1OC [2f, 3-(3,4,5-Trimethoxybenzoyl)-2,5-bis(phenylamino)-1,4-benzoquinone]	51.8 ± 6.2 µM	560 mV	1120 mV	36.1 µM	20.4 ± 2.1 µM	85.8 ± 0.9 µM		
COc1cc(NC2=CC(=O)C(Nc3cc(OC)c(OC)c(OC)c3)=C(C(=O)c3ccccc3)C2=O)cc(OC)c1OC [2i, 3-Benzoyl-2,5-bis-[(3,4,5-trimethoxyphenyl)amino]-1,4-benzoquinone]	> 100 µM	800 mV	950 mV	> 96.4 µM	92.9 ± 1.4 µM	> 100 µM		
COc1cc(NC2=CC(=O)C(Nc3cc(OC)c(OC)c(OC)c3)=C(C(=O)c3ccco3)C2=O)cc(OC)c1OC [2l, 3-(Furan-2-carbonyl)-2,5-bis-[(3,4,5-trimethoxyphenyl)amino]-1,4-benzoquinone]	47.1 ± 2 µM	790 mV	930 mV	35 µM	23 ± 2.3 µM	33 ± 4.8 µM		
COc1cc(C(=O)C2=C(Nc3cc(OC)c(OC)c(OC)c3)C(=O)C=C(Nc3cc(OC)c(OC)c(OC)c3)C2=O)ccc1O [2k, 3-(4-Hydroxy-3-methoxybenzoyl)-2,5-bis-[(3,4,5-trimethoxyphenyl)amino]-1,4-benzoquinone]	> 100 µM	610 mV	1010 mV	> 72.9 µM	45.9 ± 3.2 µM	28.3 ± 1.5 µM		
CCCC(=O)C1=C(Nc2ccccc2)C(=O)C=C(Nc2ccccc2)C1=O [2b, 3-Butiryl-2,5-bis(phenylamino)-1,4-benzoquinone]	> 100 µM	570 mV	1150 mV	> 96.1 µM	92.2 ± 8.7 µM	> 100 µM		
COc1cc(C(=O)C2=C(Nc3ccc(F)cc3)C(=O)C=C(Nc3ccc(F)cc3)C2=O)ccc1O [2o, 3-(4-Hydroxy-3-methoxybenzoyl)-2,5-bis-[(4-fluorophenyl)amino]-1,4-benzoquinone]	> 100 µM	550 mV	920 mV	> 100 µM	> 100 µM	> 100 µM		
COc1ccc(C(=O)C2=C(Nc3ccc(F)cc3)C(=O)C=C(Nc3ccc(F)cc3)C2=O)cc1 [2ñ, 3-(4-Methoxybenzoyl)-2,5-bis-[(4-fluorophenyl)amino]-1,4-benzoquinone]	> 100 µM	710 mV	860 mV	> 100 µM	> 100 µM	> 100 µM		
